# Assay results from patent US20220033784A1 (priority 2020, published 2022).
# Residue numbers refer to the chain shown, from its start. Names may count otherwise. Read-outs that look alike come from different tables or passages of the source.
# T1: human intermediate-affinity IL-2 receptor complex, IL-2 CD122/CD132 (β/γ), on cells (human, UniProt P14784 27-551; P31785 23-369)
# T1 sequence (looked up) 1: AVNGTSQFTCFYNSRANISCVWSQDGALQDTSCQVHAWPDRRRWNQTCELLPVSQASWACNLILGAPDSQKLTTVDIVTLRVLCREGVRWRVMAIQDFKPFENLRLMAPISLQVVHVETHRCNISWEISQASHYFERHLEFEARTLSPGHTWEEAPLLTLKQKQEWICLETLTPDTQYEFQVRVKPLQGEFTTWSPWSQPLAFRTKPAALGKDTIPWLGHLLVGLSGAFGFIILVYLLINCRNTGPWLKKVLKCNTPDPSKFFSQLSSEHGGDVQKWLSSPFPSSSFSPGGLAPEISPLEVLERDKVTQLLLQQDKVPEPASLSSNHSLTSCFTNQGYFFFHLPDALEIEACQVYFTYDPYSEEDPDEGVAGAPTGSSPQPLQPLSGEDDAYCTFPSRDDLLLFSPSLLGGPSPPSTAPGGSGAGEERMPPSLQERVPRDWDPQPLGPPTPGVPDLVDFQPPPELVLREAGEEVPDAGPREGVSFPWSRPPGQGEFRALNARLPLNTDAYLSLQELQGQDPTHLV
# T1 sequence (looked up) 2: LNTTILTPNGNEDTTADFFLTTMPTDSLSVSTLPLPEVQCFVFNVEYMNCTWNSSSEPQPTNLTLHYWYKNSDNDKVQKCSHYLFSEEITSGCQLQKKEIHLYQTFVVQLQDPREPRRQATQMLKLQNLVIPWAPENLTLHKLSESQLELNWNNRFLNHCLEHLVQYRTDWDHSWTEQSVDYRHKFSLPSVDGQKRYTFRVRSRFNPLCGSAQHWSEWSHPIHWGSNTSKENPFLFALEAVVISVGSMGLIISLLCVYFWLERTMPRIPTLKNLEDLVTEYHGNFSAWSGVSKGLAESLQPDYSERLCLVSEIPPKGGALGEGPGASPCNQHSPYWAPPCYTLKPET
# T2: human high-affinity IL-2 receptor complex, IL-2 CD25/CD122/CD132 (α/β/γ), on cells (human, UniProt P01589 22-272; P14784 27-551; P31785 23-369)
# T2 sequence (looked up) 1: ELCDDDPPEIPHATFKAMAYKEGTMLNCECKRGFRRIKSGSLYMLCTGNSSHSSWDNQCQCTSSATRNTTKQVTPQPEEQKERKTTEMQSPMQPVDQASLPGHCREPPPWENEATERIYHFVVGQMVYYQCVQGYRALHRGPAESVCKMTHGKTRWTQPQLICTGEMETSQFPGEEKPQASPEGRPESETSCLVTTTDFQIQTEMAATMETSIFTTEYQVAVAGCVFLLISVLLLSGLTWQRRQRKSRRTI
# T2 sequence (looked up) 2: T1 sequence (looked up) 1
# T2 sequence (looked up) 3: T1 sequence (looked up) 2
# T3: human IL-2 receptor beta (IL-2Rβ, CD122), purified soluble (human, UniProt P14784 27-240)
# T3 construct: also called hILR2β (CD122); human IL-2Rβ
# T3 sequence (looked up): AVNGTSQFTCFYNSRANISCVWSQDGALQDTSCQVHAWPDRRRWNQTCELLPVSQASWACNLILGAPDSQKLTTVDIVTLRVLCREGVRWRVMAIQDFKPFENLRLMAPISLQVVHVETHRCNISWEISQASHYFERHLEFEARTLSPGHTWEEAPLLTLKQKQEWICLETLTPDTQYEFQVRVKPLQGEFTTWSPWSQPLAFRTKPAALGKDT
# B1: Fc-IL2-R38N:L40T-K43N:Y45T (Fc fusion)
# chain: GGGGSGGGGSAPTSSSTKKTQLQLEHLLLDLQMILNGINNYKNPKLTNMTTFNFTMPKKATELKHLQCLEEELKPLEEVLNLAQSKNFHLRPRDLISNINVIVLELKGSETTFMCEYADETATIVEFLNRWITFCQSIISTLT
# B2: Fc-IL2-K43N:Y45T-E62N:K64T (Fc fusion)
# chain: B1 chain with N48R, T50L, E72N, K74T
# B3: Fc-IL2-K43N:Y45T-L72N:Q74T (Fc fusion)
# chain: B1 chain with N48R, T50L, L82N, Q84T
# B4: Fc-IL2-R38N:L40T-L72N:Q74T (Fc fusion)
# chain: B1 chain with N53K, T55Y, L82N, Q84T
# B5: Fc-IL2-R38N:L40T-E62N:K64T (Fc fusion)
# chain: B1 chain with N53K, T55Y, E72N, K74T
# B6: Fc-IL2-K43N:Y45T-E62N:K64T (protein)
# chain: APTSSSTKKTQLQLEHLLLDLQMILNGINNYKNPKLTRMLTFNFTMPKKATELKHLQCLEENLTPLEEVLNLAQSKNFHLRPRDLISNINVIVLELKGSETTFMCEYADETATIVEFLNRWITFCQSIISTLT
# Experiments:
# [1] = system: HH cells (IL-2 CD122/CD132 (β/γ) receptor complex); test: pSTAT5 ELISA in HH cells; type: cell-based; conditions: for Selectivity HH/iTreg: higher value = greater selectivity for HH cells; for EC50: pSTAT5 level 50% of maximum, InstantOne ELISA, read-out: EC50 HH T cell
# Description: (§1) The ability of the IL-2 variants to activate HH cells and iTregs was measured by monitoring relative changes in phosphorylated STAT5 (pSTAT5) in response to treatment of the cells with the IL-2 variants. pSTAT5 is known to be a downstream consequence of IL-2 signaling. HH T cells (ATCC CRL-2105) are a line of T cells that lack the alpha chain of the IL-2 receptor complex, but that contain the beta and gamma chains of the IL-2 receptor complex. iTreg cells were prepared from Fresh Leuko Paks obtained from […] Technologies (CAT #70500.1, Donor #D001003551).
# (§2) For IL-2 activation, the HH cells and iTreg cells were plated at 2*10e6 cells/well in 50 ul serum-free RPMI 1640 media (Gibco), and allowed to rest at 37° C. After resting, cells were treated the IL-2 molecules listed above, and cells were then pelleted by centrifugation.
# (§3) Following treatment with the IL-2 molecules, cell induction status was evaluated by the InstantOne ELISA pSTAT5 detection kit (Invitrogen).
# [2] = system: iTreg cells (IL-2 CD25/CD122/CD132 (α/β/γ) receptor complex); test: pSTAT5 ELISA in iTreg cells; type: cell-based; conditions: pSTAT5 level 50% of maximum, InstantOne ELISA; read-out: EC50 iTreg cell
# Description: as §1, §2, §3
# Treg cells = test: pSTAT5 flow cytometry in hPBMCs: Treg cells; type: cell-based, human; conditions: pSTAT5 MFI in hPBMCs, 20 minutes at 37° C.; read-out: EC50 Treg cell
# Description: (§4) In this experiment, the ability of the IL-2 variants to activate CD8 T cells, NK cells, and Treg cells was measured by monitoring relative changes in pSTAT5 in response to treatment of the cells with the IL-2 variants. The IL-2 variants tested in this experiment were each fused to a human IgG Fc domain as described in Example 15. […]; Blood from healthy volunteers was taken and hPBMCs were isolated using a ficoll-paque (GE Healthcare) gradient, washed with PBS to remove platelets, and cleared of red blood cells using ACK lysis buffer (Gibco). Cells were then plated at 1*10e6 cells/well in 90 uL serum-free RPMI 1640 media (Gibco) and allowed to rest for 2-4 hours at 37° C. After resting, cells were treated the IL-2 molecules listed above (10 uL), at the indicated concentrations for 20 minutes at 37° C., and 25 uL 20% PFA was immediately added with gentle pipetting. Cells were then pelleted by centrifugation and aspirated (400 RCF, 7 minutes).
# (§5) Phosflow Perm Buffer III (BD Biosciences) was added (200 uL), and the cells were mixed gently by pipetting up and down once to prevent clumping. Cells were then washed twice with 200 uL FACS buffer followed by pelleting by centrifugation (400 RCF, 7 minutes). Cells were in resuspended in 200 uL FACS buffer and incubated with the antibodies in Table D and Table E per standard procedure then suspended in 200 uL FACS buffer for FACS analysis. Data was analyzed using FlowJo v10 software.
# CD8 T cells = test: pSTAT5 flow cytometry in hPBMCs: CD8 T cells; type: cell-based, human; conditions: for Selectivity CD8/Treg: larger numbers = greater selectivity for CD8 T cells over Treg cells; for EC50: pSTAT5 MFI in hPBMCs, 20 minutes at 37° C., read-out: EC50 CD8 T cell
# Description: as §4, §5
# NK cells = test: pSTAT5 flow cytometry in hPBMCs: NK cells; type: cell-based, human; conditions: for Selectivity NK/Treg: larger numbers = greater selectivity for NK cells over Treg cells; for EC50: pSTAT5 MFI in hPBMCs, 20 minutes at 37° C., read-out: EC50 NK cell
# Description: as §4, §5
# [3] = target: T1, human intermediate-affinity IL-2 …; test: cell-based or functional assay
# [4] = target: T2, human high-affinity IL-2 receptor …; test: cell-based or functional assay
# [5] = target: T1, human intermediate-affinity IL-2 …; test: cell-based or functional assay; remark: listed apart in the source
# [6] = target: T3, human IL-2 receptor beta (IL-2Rβ, …); test: SPR (Biacore 8K, 25 C), CD122 amine-coupled on CM5 chip, Fc-IL2 variant as analyte, 1:1 Langmuir fit
# [7] = target: T1, human intermediate-affinity IL-2 …; test: cell-based or functional assay; remark: listed apart in the source
# [8] = target: T2, human high-affinity IL-2 receptor …; test: cell-based or functional assay; remark: listed apart in the source
Molecule,Selectivity HH/iTreg [1],EC50 [1],EC50 [2],EC50 (Treg cells),Selectivity CD8/Treg (CD8 T cells),EC50 (CD8 T cells),Selectivity NK/Treg (NK cells),EC50 (NK cells),also measured
Fc-IL2-R38N:L40T,6.75 × 10^−4,163 nM,0.11 nM,7.89 nM,0.3,26.5 nM,2.58,3.06 nM,–
Fc-IL2-K35N,–,–,–,0.07 nM,0.00284,24.6 nM,0.0276,2.54 nM,–
Fc-IL2-T41N:K43T,2.69 × 10^−4,37.2 nM,0.01 nM,2.13 nM,0.07,31.2 nM,0.7,3.05 nM,–
Fc-IL2-L72N:Q74T,8.4 × 10^−4,47.6 nM,0.04 nM,2.29 nM,0.1,22.1 nM,0.98,2.33 nM,–
Fc-IL2-E62N:K64T,3.84 × 10^−4,52.1 nM,0.02 nM,2.26 nM,0.09,25.5 nM,0.62,3.65 nM,–
B1,–,–,–,–,–,–,–,–,"EC50 (read off the curve), pSTAT5 MFI in NK cells of hPBMC [3]: ~8 nM; EC50 (read off the curve), pSTAT5 MFI in Treg cells of hPBMC [4]: ~20 nM; EC50 (read off the curve), pSTAT5 MFI in NK cells of hPBMC [5]: ~8 nM; Kd [6]: 3540 nM; koff [6]: 0.292 s⁻¹; kon [6]: 82600 M⁻¹ s⁻¹; EC50, pSTAT5 induction in HH T cells (ELISA) [7]: 218 nM; EC50, pSTAT5 induction in iTreg cells (ELISA) [8]: 14.1 nM"
B2,–,–,–,–,–,–,–,–,"EC50 (read off the curve), pSTAT5 MFI in NK cells of hPBMC [5]: ~6 nM; EC50, pSTAT5 induction in HH T cells (ELISA) [7]: 66.2 nM; EC50, pSTAT5 induction in iTreg cells (ELISA) [8]: 3.07 nM"
B3,–,–,–,–,–,–,–,–,"EC50 (read off the curve), pSTAT5 MFI in NK cells of hPBMC [5]: ~6 nM; Kd [6]: 2620 nM; koff [6]: 0.235 s⁻¹; kon [6]: 89900 M⁻¹ s⁻¹; EC50, pSTAT5 induction in HH T cells (ELISA) [7]: 65.2 nM; EC50, pSTAT5 induction in iTreg cells (ELISA) [8]: 4.49 nM"
B4,–,–,–,–,–,–,–,–,"EC50 (read off the curve), pSTAT5 MFI in NK cells of hPBMC [3]: ~6 nM; EC50 (read off the curve), pSTAT5 MFI in Treg cells of hPBMC [4]: ~20 nM"
B5,–,–,–,–,–,–,–,–,"EC50 (read off the curve), pSTAT5 MFI in NK cells of hPBMC [3]: ~6 nM; EC50 (read off the curve), pSTAT5 MFI in Treg cells of hPBMC [4]: ~20 nM"
B6,4.64 × 10^−2,66.2 nM,3.07 nM,–,–,–,–,–,relative selectivity for HH cells vs iTreg cells among the tested molecules ([1]; Table C): greatest relative selectivity
